Test results reported in publication PMC9450956 (Science translational medicine, 2021).

Legend:
cellular CAPRIN1 = biological target: T1, cellular CAPRIN1 (Homo sapiens, UniProt Q14444); experiment: HB007-biotin pull-down competition with cell lysates, immunoblot; assay type: binding; details: free compound added to cell lysates
T1 sequence (Q14444 1-709): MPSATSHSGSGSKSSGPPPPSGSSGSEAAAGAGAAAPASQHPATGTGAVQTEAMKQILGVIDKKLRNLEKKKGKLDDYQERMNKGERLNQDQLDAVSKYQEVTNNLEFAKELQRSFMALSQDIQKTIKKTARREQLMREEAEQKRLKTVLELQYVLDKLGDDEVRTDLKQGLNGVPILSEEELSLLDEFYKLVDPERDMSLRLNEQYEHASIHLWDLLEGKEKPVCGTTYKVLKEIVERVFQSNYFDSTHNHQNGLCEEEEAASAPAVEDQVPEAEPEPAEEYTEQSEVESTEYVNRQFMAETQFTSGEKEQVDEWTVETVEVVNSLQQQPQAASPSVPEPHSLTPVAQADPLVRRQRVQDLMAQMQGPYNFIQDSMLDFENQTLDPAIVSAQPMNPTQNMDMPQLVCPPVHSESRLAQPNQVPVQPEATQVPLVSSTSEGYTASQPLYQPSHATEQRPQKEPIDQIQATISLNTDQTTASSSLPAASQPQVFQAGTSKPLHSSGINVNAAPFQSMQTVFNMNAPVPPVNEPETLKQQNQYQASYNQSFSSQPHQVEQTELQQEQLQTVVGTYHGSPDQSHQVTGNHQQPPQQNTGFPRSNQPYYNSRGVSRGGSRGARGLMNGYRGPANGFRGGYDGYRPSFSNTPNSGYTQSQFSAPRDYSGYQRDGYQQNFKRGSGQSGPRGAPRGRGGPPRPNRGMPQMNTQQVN

SUMO1 [1] = experiment: Western and dot blots for SUMO1 in LN229 cells; assay type: cell-based, human; details: 72 hours
SUMO1 mRNA = SUMO1 mRNA expression in LN229 cells; assay type: cell-based, human; details: LN229 cancer cells
[2] = test system: SUMO1-CDK6, SUMO1-RanGAP1, and SUMO3-RanGAP1 conjugation; experiment: In vitro sumoylation assay; assay type: biochemical; details: CDK6 and RanGap1 as substrates
SUMO1 [3] = experiment: SUMO1 target engagement in colon cancer PDX mice; assay type: in vivo; details: intraperitoneal once per day for 3 days, dose-dependent
[4] = test system: NSCLC A549 and colon cancer HCT116 xenografts; experiment: Cancer cell line-derived subcutaneous xenografts; assay type: in vivo, mice; details: intraperitoneal, once per day for 14 days
[5] = test system: LN229-derived brain xenografts; experiment: LN229-derived intracranial brain xenografts, survival; assay type: in vivo, mice; details: intraperitoneal, once per day for 14 days; Kaplan-Meier
[6] = test system: human colon, breast carcinoma, and NSCLC PDXs; experiment: Cancer PDX mouse models, tumor progression and survival; assay type: in vivo, mice; details: for progression of PDXs: intraperitoneal, once per day for 14 days
[7] = test system: matched normal lung, colon, breast and brain cells; experiment: Cell viability, matched normal cells; assay type: cell-based, human; details: compared to cancer cell lines
[8] = test system: cytochrome P450s (2C9, 2D6, and 3A4); experiment: CYP inhibition in human liver microsomes; assay type: in vitro ADME; details: 10 μM
[9] = test system: kinases, ion channels, NHRs, enzymes; experiment: LeadProfilingScreen selectivity profiling; assay type: binding, human; details: 10 μM
[10] = biological target: human ether-a-go-go–related gene (Homo sapiens, UniProt Q12809); experiment: LeadProfilingScreen selectivity profiling; assay type: binding; details: 10 μM
adenosine A2A = adenosine A2A (Homo sapiens, UniProt P29274); experiment: LeadProfilingScreen selectivity profiling; assay type: binding; details: 10 μM
histamine H2 = histamine H2 (Homo sapiens, UniProt P25021); experiment: LeadProfilingScreen selectivity profiling; assay type: binding; details: 10 μM
[11] = biological target: 5-hydroxytryptamine receptor 2B (5-HT2B) (Homo sapiens, UniProt P41595); experiment: LeadProfilingScreen selectivity profiling; assay type: binding; details: 10 μM
Microsomal stability [12] = assay type: in vitro ADME, mouse; details: 1 μM, 45 min, LC-MS
Microsomal stability [13] = assay type: in vitro ADME, human; details: 1 μM, 45 min, LC-MS
[14] = Intraperitoneal PK, plasma and brain; assay type: in vivo, NOD/SCID mice; details: intraperitoneal injection 20 mg/kg, mice
[15] = Oral PK of solution formulation; assay type: in vivo; details: rat
[16] = Oral and intravenous PK of suspension; assay type: in vivo, rodents; details: administered as a suspension
SUMO1 [17] = experiment: Western and dot blots for SUMO1 in HCT116 cells; assay type: cell-based, human; details: gradually over about 24 hours
cancer cells = experiment: Caspase-3/7 activation and caspase-3 cleavage; assay type: cell-based, human; details: caspase-3 cleavage
SUMO1 [18] = experiment: Western blots for SUMO1 in normal lung epithelial cells; assay type: cell-based, human; details: 72 hours; compared to lung cancer cells

Chain of human ether-a-go-go–related gene (Q12809 whole entry): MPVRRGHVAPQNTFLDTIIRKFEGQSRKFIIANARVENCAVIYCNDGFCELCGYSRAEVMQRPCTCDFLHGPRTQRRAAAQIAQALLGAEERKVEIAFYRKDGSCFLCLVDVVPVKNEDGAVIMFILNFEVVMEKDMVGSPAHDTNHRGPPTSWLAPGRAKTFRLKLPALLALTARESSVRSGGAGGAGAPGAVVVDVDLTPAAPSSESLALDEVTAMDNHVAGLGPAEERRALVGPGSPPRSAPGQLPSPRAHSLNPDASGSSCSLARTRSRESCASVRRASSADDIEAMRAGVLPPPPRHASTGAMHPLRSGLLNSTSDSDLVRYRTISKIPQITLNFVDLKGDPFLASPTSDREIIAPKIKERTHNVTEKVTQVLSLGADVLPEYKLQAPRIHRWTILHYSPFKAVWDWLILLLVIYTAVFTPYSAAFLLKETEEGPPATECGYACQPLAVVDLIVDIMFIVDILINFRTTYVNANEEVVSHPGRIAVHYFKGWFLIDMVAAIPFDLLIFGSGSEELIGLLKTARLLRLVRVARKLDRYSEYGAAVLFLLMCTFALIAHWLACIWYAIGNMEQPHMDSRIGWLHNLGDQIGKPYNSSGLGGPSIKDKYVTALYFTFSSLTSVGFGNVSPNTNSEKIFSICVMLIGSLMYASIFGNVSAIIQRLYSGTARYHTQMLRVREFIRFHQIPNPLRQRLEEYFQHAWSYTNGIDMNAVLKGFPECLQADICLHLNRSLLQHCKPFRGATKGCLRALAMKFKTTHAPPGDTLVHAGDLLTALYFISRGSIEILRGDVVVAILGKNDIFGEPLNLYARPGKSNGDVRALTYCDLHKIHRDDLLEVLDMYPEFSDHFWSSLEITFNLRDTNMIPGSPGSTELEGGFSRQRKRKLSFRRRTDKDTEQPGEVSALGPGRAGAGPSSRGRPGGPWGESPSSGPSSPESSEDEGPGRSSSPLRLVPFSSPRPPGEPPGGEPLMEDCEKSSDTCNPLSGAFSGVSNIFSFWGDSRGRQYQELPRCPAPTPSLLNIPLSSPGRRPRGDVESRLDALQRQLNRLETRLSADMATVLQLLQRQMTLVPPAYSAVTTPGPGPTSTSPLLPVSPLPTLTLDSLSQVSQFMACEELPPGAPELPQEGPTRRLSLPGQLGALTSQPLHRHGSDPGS
Chain of histamine H2 (P25021 whole entry): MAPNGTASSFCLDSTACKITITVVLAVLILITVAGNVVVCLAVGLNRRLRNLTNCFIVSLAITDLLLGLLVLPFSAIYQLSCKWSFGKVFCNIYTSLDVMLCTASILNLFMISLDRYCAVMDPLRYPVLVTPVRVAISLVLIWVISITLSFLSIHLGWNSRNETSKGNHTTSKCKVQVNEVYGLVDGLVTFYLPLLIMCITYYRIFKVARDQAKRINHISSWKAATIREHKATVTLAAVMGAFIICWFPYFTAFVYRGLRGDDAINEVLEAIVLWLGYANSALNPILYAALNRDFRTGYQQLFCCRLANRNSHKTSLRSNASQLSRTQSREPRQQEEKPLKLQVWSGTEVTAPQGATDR
Chain of adenosine A2A (P29274 whole entry): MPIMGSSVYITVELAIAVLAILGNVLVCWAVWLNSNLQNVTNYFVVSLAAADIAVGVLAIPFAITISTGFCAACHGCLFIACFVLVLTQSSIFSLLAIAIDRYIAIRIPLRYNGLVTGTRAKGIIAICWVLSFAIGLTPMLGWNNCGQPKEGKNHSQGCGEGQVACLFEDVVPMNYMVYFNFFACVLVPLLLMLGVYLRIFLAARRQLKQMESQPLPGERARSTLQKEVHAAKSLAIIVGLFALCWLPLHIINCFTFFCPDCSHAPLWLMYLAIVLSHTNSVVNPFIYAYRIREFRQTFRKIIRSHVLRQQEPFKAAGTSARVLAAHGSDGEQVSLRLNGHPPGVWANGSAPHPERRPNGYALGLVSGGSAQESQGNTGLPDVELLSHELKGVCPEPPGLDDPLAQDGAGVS
Chain of 5-hydroxytryptamine receptor 2B (5-HT2B) (P41595 whole entry): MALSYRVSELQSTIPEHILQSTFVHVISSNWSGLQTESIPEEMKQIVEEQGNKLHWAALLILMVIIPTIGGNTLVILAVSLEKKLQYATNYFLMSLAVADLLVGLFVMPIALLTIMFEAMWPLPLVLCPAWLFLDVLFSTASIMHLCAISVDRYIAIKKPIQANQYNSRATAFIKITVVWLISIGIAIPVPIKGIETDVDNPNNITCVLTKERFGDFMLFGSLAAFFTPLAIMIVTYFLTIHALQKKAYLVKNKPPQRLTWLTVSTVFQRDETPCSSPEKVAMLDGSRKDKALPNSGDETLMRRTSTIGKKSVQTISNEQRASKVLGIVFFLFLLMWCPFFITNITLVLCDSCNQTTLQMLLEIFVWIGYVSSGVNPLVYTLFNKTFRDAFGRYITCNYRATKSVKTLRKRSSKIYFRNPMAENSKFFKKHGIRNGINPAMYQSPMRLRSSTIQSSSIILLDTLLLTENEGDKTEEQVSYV

O=C(Nc1ccc(Cl)cc1)Nc1nc2ccccc2s1 [compound 789482, reference compound]
competitive inhibition of binding of cellular CAPRIN1 to HB007-linked biotin (cellular CAPRIN1): failed to competitively inhibit

O=[N+]([O-])c1cccc2nc(Nc3ccc(Cl)cc3)sc12 [compound 11208948, reference compound]
competitive inhibition of binding of cellular CAPRIN1 to HB007-linked biotin (cellular CAPRIN1): failed to competitively inhibit

O=C(Nc1ccc(Cl)c([N+](=O)[O-])c1)Nc1nc2ccccc2s1 [CPD1, 1-(1,3-benzothiazol-2-yl)-3-(4-chloro-3-nitrophenyl)urea]
effect on SUMO1 and SUMO2/3 protein amounts (SUMO1 [1]): reduced the conjugated and unconjugated forms and total amounts of SUMO1 but not SUMO2/3 protein | effect on SUMO1 mRNA expression (SUMO1 mRNA): no effects | effect on in vitro SUMO conjugation [2]: no effects | effect on SUMO1 protein in xenograft tissues (SUMO1 [3]): markedly reduced both the total amounts and conjugate SUMO1 but not SUMO2/3 protein | xenograft growth [4]: suppressed xenograft growth | survival of brain xenograft-bearing mice [5]: increased the survival | progression of PDXs [6]: effectively suppressed the progression

N#Cc1ccc2nc(NC(=O)Nc3cccc(Cl)c3)sc2c1 [HB007]
growth inhibition of matched normal cells [7]: much lower growth inhibition effects | competitive inhibition of binding of cellular CAPRIN1 to HB007-linked biotin (cellular CAPRIN1): competitively blocked | inhibition of CYP enzymes [8]: did not inhibit | activity against kinases, ion channels, NHRs, enzymes [9]: no activity | activity against human ether-a-go-go–related gene [10]: no activity | inhibition of adenosine A2A (adenosine A2A): some inhibition | inhibition of histamine H2 (histamine H2): some inhibition | inhibition of 5-HT2B [11]: some inhibition | metabolic stability in mouse liver microsomes (Microsomal stability [12]): sufficiently stable | metabolic stability in human liver microsomes (Microsomal stability [13]): sufficiently stable | brain-to-plasma partition coefficient [14]: 0.57 | oral bioavailability in plasma [15]: up to 82% | plasma concentrations after oral and intravenous administration [16]: low plasma concentrations | effect on SUMO1 and SUMO2/3 protein amounts (SUMO1 [17]): reduced the conjugated and total amounts of SUMO1 but not SUMO2/3 protein | induction of apoptotic cell death (cancer cells): did not induce apoptotic cell death | effect on conjugated and total SUMO1 in normal lung epithelial cells (SUMO1 [18]): no effects | effect on SUMO1 protein in xenograft tissues (SUMO1 [3]): markedly reduced both the total amounts and conjugate SUMO1 but not SUMO2/3 protein | xenograft growth [4]: suppressed xenograft growth | survival of PDX mice ([6]; BRCA1 mutant breast carcinoma and primary or metastatic colon carcinoma PDX): increased the survival | progression of PDXs [6]: effectively suppressed the progression
